≈ marks a conversion by molar mass, not a printed value.
How the values were obtained:
Format in all cases: functional
[1] = tested on: Radical scavenging activity; assay: Antioxidant activity of the compound assessed as DPPH radical scavenging activity at 10 ug/ml after 30 min
[2] = tested on: Radical scavenging activity; assay: Antioxidant activity of the compound assessed as DPPH radical scavenging activity at 2 ug/ml after 30 min
[3] = tested on: Radical scavenging activity; assay: Antioxidant activity of the compound assessed as DPPH radical scavenging activity at 8 ug/ml after 30 min
[4] = tested on: Radical scavenging activity; assay: Antioxidant activity of the compound assessed as DPPH radical scavenging activity at 6 ug/ml after 30 min
[5] = tested on: Radical scavenging activity; assay: Antioxidant activity of the compound assessed as DPPH radical scavenging activity after 30 min
[6] = tested on: Radical scavenging activity; assay: Antioxidant activity of the compound assessed as DPPH radical scavenging activity at 4 ug/ml after 30 min

Structure (SMILES)	inhibition [1] [%]	inhibition [2] [%]	inhibition [3] [%]	inhibition [4] [%]	IC50 [5] [µg/mL]	inhibition [6] [%]
O=C1O[C@H]([C@@H](O)CO)C(O)=C1O [ASCORBIC ACID]	87.3	18.2	69.3	53.2	5.68 (≈ 32.3 µM)	35.3
O=[N+]([O-])c1cccc(-c2nnc(-c3ccncc3)o2)c1	71.2	15	57.7	42.5	6.99 (≈ 26.1 µM)	28.7
O=[N+]([O-])c1ccc(-c2nnc(-c3ccncc3)o2)cc1	39.8	6.66	31.5	23.2	12.47 (≈ 46.5 µM)	14.9
Nc1ccccc1-c1nnc(-c2ccccc2N)o1	64	12.1	52.1	38.6	7.76 (≈ 30.8 µM)	25.8
Clc1ccc(-c2nnc(-c3ccncc3)o2)cc1	53.8	12.8	43.6	39	9.01 (≈ 35 µM)	24.4
Nc1ccccc1-c1nnc(-c2cccc([N+](=O)[O-])c2)o1	30.8	5.51	25.2	19.7	16.04 (≈ 56.8 µM)	14.2
Nc1ccc(-c2nnc(-c3ccccc3N)o2)c(O)c1	24.9	4.98	19.9	14.9	20.05 (≈ 74.7 µM)	9.97
Nc1ccccc1-c1nnc(-c2ccc(Cl)cc2)o1	59.5	12.3	50	36.2	8.26 (≈ 30.4 µM)	23.5
Nc1ccc(-c2nnc(-c3ccncc3)o2)cc1	41.4	8.27	33.1	24.8	12.08 (≈ 50.7 µM)	16.5
Cc1cccc(-c2nnc(-c3ccccc3N)o2)c1O	81.9	15.9	64.9	48.8	6 (≈ 22.4 µM)	31.9

— ChEMBL document CHEMBL3046108, “Comparison between antioxidant activity of 2,5-disubstituted 1,3,4-oxadiazoles containing heteroaromatic ring and aromatic ring at 2nd position” (Med Chem Res, 2011)
